Test results taken from patent US12617870B2, “Methods of reversing ticagrelor activity” (SFJ Pharmaceuticals X, LTD., priority 2018, dated 2026).
Values joined by “and” are separate entries in the source; they are usually repeats but may differ in a detail not shown here. Identical values can stand only once.

Assays:
[1] = test system: PB2452 binding to biotinylated ticagrelor; test: Selectivity: competition binding with PB2452 to biotinylated ticagrelor; parameters: species or system human
Protocol: The chemical starting point for the development of ticagrelor was adenosine triphosphate (ATP), and ticagrelor retains an adenosine-like core. To confirm the specificity of PB2452 for ticagrelor and ticagrelor active metabolite (TAM), its binding to ATP, ADP, and adenosine was evaluated. […] The selectivity of PB2452 was determined by competition binding with PB2452 to biotinylated ticagrelor.

[2] = PLATO, cited from earlier work; for patients with fatal or life-threatening major bleeding events: patients with ACS, both treatment groups
[3] = test system: platelet aggregation (ticagrelor antiplatelet activity); format: in vivo, human; settings: placebo subjects
Protocol: Platelet function was assessed using light transmission aggregometry (LTA), VerifyNow, and vasodilator stimulated phosphoprotein (VASP) assays before and after 48 hours of ticagrelor administration […] Cohorts 7 to 10 received an 18-gram fixed dose of PB2452 via various infusion regimens or placebo. Infusions of PB2452 in these cohorts were initiated 2 hours after the last ticagrelor pretreatment dose to coincide with the peak concentration of ticagrelor. (Gurbel (2009). Subjects in all cohorts were randomized in a 3:1 ratio to receive PB2452 or placebo. The primary efficacy outcome was the effectiveness of PB2452 in reversing the antiplatelet effect of ticagrelor by analyzing platelet aggregation using light transmission aggregometry at multiple time points before and after PB2452 or placebo administration in ticagrelor pretreated subjects. Secondary efficacy outcomes were the effectiveness of ticagrelor reversal assessed using VerifyNow and the vasodilator stimulated phosphoprotein phosphorylation immunoassay (VASP). The sample size of 64 was based on clinical and practical considerations and not on a formal statistical power calculation. The sample size was considered sufficient to adequately assess the safety, efficacy, and pharmacokinetic profiles of PB2452 and the pharmacokinetic and pharmacodynamic profiles of ticagrelor. Reversal of antiplatelet effect was evaluated by comparing the mean percent of baseline platelet aggregation between PB2452 and placebo using Wilcoxon rank-sum test. Multiplicity was adjusted using the Bonferroni method. Correlations between each pair of the platelet function tests were evaluated using Pearson's correlation and Spearman's rank correlation coefficient. Mean data from subjects receiving placebo were pooled across cohorts for all presentations. Categorical variables are summarized by their frequencies and percentages, and continuous variables are presented with the number of subjects with non-missing data, mean, standard deviation, median, minimum, and maximum. Descriptive statistics are presented for each cohort, and pooled placebo and PB2452 data. For pharmacodynamic data, platelet aggregation results were compared between each cohort and pooled placebo data (cohorts 4 to 6 and cohort 7 to 10 were pooled separately). All analyses were performed with SAS software, version 9.4 (SAS Institute).

[4] = Phase 1 healthy volunteer study: pharmacokinetics of total ticagrelor; format: in vivo, human
Protocol: Plasma samples for determining total concentration of ticagrelor and its active metabolite, TAM (or ARC-124910XX) will be collected from subjects in Cohorts 4 through 10 before dosing (within 10 minutes prior to the initiation of the study drug infusion [Hour 0], and up to 48 hours following the initiation of study drug infusion. Specific collection times for each cohort are listed in the table below: […]

Row | SMILES | inhibition of PB2452 binding to biotinylated ticagrelor [1] | further results
1 | CSCCNc1nc(SCCC(F)(F)F)nc2c1ncn2[C@@H]1O[C@H](COP(=O)(O)OP(=O)(O)C(Cl)(Cl)P(=O)(O)O)[C@@H](O)[C@H]1O [cangrelor] | No inhibition | –
2 | Nc1ncnc2c1ncn2[C@@H]1O[C@H](CO)[C@@H](O)[C@H]1O [adenosine] | No inhibition | –
3 | CNC(=O)c1cnn(-c2nc(N)c3ncn([C@@H]4O[C@H](CO)[C@@H](O)[C@H]4O)c3n2)c1 [regadenoson] | No inhibition | –
4 | Nc1ncnc2c1ncn2[C@@H]1O[C@H](COP(=O)(O)OP(=O)(O)OP(=O)(O)O)[C@@H](O)[C@H]1O [ATP, adenosine triphosphate] | No inhibition | –
5 | CC(=O)NC[C@H]1CN(c2ccc(N3CCOCC3)c(F)c2)C(=O)O1 [linezolid] | No inhibition | –
6 | NS(=O)(=O)c1cc2c(cc1Cl)NC(C1CC3C=CC1C3)NS2(=O)=O (centres unmarked) [cyclothiazide] | No inhibition | –
7 | O=C1CCc2cc(OCCCCc3nnnn3C3CCCCC3)ccc2N1 [cilostazol] | No inhibition | –
8 | COC(=O)C1=C(C#N)NC(C)=C(C(=O)OC(C)C)C1c1cccc([N+](=O)[O-])c1 (centres unmarked) [nilvadipine] | No inhibition | –
9 | CCCC(=O)Nc1ncnc2c1ncn2[C@@H]1O[C@@H]2COP(=O)(O)O[C@H]2[C@H]1OC(=O)CCC [bucladesine] | No inhibition | –
10 | COC(=O)[C@H](c1ccccc1Cl)N1CCc2sccc2C1 [clopidogrel] | – | patients with fatal or life-threatening major bleeding events [2]: 5.8%
11 | CC[C@H](C)C(=O)O[C@H]1C[C@@H](C)C=C2C=C[C@H](C)[C@H](CC[C@@H]3C[C@@H](O)CC(=O)O3)[C@H]21 [lovastatin] | No inhibition | –
12 | CCCSc1nc(N[C@@H]2C[C@H]2c2ccc(F)c(F)c2)c2nnn([C@@H]3C[C@H](OCCO)[C@@H](O)[C@H]3O)c2n1 [ticagrelor, (1S,2S,3R,5S)-3-[7-{[(1R,2S)-2-(3,4-difluorophenyl)cyclopropyl]amino}-5-(propylthio)-3H-[1,2,3]triazolo[4,5-d]pyrimidin-3-yl]-5-(2-hydroxyethoxy)cyclopentane-1,2-diol] | – | suppression of platelet aggregation ([3]; after 48 hours of ticagrelor (180 mg loading + 90 mg twice daily)): ~80% and 80-85%; platelet aggregation remained suppressed after ticagrelor was stopped [3]: 24 h; patients with fatal or life-threatening major bleeding events [2]: 5.8%; patients with fatal or life-threatening bleeding event ([2]; urgent surgery, could not wait three days for ticagrelor to wash out): approximately 50%; patients with major bleeding related to procedures like CABG [2]: approximately 9%; patients with spontaneous major bleeding events not related to any medical procedure [2]: approximately 3%; increase of mean ticagrelor concentrations compared with ticagrelor alone ([4]; PB2452 18 gram dose level with 8- to 16-hour infusions): 5.6 fold; increase of mean concentration of circulating ticagrelor ([4]; in the presence of PB2452 (Cohorts 4-6, FIG. 11B)): 2-5.6 fold; time of peak total ticagrelor concentration after an oral dose ([4]; subjects receiving ticagrelor alone): approximately 2 hours; peak total ticagrelor concentration ([4]; subjects receiving ticagrelor alone, oral dose): 900 ng/mL
13 | CC1(C)C(C=C(Cl)Cl)C1C(=O)OC(C#N)c1ccc(F)c(Oc2ccccc2)c1 (centres unmarked) [cyfluthrin] | No inhibition | –
14 | Nc1ncnc2c1ncn2[C@@H]1O[C@H](COP(=O)(O)OP(=O)(O)O)[C@@H](O)[C@H]1O [ADP, adenosine diphosphate] | No inhibition | –
